± gives the standard deviation of the averaged measurements.
Experiments:
MK-1775 = compound: C=CCn1c(=O)c2cnc(Nc3ccc(N4CCN(C)CC4)cc3)nc2n1-c1cccc(C(C)(C)O)n1 [MK-1775]; assay: surviving fraction relative to DMSO-only wells; higher = less growth inhibition; conditions: exposure time: 5 days
Method in brief: (§1)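 Each tumour cell line was screened three times, and only lines with replicate Pearson r >0.7 and median Z' >0.3 were kept. Cells in log phase were seeded at 250–500 per well in 384-well plates, left 24 hours, then exposed continuously for five days to inhibitors at 0.5, 1, 5, 10, 50, 100, 500 and 1000 nM. Viability was read as CellTiter-Glo luminescence, with surviving fraction normalised to the median of DMSO-only wells.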

BLEOMYCIN = compound: Cc1c(N)nc([C@H](CC(N)=O)NC[C@H](N)C(N)=O)nc1C(=O)N[C@H](C(=O)N[C@H](C)[C@@H](O)[C@H](C)C(=O)N[C@H](C(=O)NCCc1nc(-c2nc(C(=O)NCCC[S+](C)C)cs2)cs1)[C@@H](C)O)[C@@H](OC1OC(CO)C(O)C(O)C1OC1OC(CO)C(O)C(OC(N)=O)C1O)c1cnc[nH]1 [BLEOMYCIN]; assay: as above; conditions: exposure time: 5 days
Method in brief: as §1

Test System | surviving fraction (MK-1775; 0.5 nM) | surviving fraction (MK-1775; 1 nM) | surviving fraction (MK-1775; 5 nM) | surviving fraction (MK-1775; 10 nM) | surviving fraction (MK-1775; 50 nM) | surviving fraction (MK-1775; 100 nM) | surviving fraction (MK-1775; 500 nM) | surviving fraction (MK-1775; 1000 nM) | surviving fraction (BLEOMYCIN; 0.5 nM) | surviving fraction (BLEOMYCIN; 1 nM) | surviving fraction (BLEOMYCIN; 5 nM) | surviving fraction (BLEOMYCIN; 10 nM) | surviving fraction (BLEOMYCIN; 50 nM) | surviving fraction (BLEOMYCIN; 100 nM) | surviving fraction (BLEOMYCIN; 500 nM) | surviving fraction (BLEOMYCIN; 1000 nM)
22RV1 PROSTATE | 1.01 ± 0.03 | 1.01 ± 0.066 | 0.972 ± 0.051 | 1 ± 0.021 | 1.03 ± 0.033 | 0.877 ± 0.083 | 0.608 ± 0.028 | 0.263 ± 0.039 | 0.962 ± 0.044 | 0.979 ± 0.053 | 0.962 ± 0.029 | 0.887 ± 0.026 | 0.922 ± 0.0089 | 0.886 ± 0.051 | 0.738 ± 0.032 | 0.573 ± 0.088
93VU HEADNECK | 1.05 ± 0.098 | 0.996 ± 0.034 | 1.13 ± 0.1 | 1.01 ± 0.033 | 0.649 ± 0.063 | 0.416 ± 0.038 | 0.22 ± 0.021 | 0.165 ± 0.029 | 0.8 ± 0.006 | 0.83 ± 0.058 | 0.785 ± 0.011 | 0.783 ± 0.015 | 0.764 ± 0.058 | 0.633 ± 0.023 | 0.386 ± 0.025 | 0.327 ± 0.066
143B BONE | 0.998 ± 0.0057 | 1.01 ± 0.033 | 1.02 ± 0.045 | 1.02 ± 0.0028 | 1.025 ± 0.0057 | 0.993 ± 0.013 | 0.111 ± 0.011 | 0.067 ± 0.0042 | 0.978 ± 0.023 | 0.98 ± 0.023 | 0.995 ± 0.012 | 1.01 ± 0.042 | 0.946 ± 0.0014 | 0.977 ± 0.0014 | 0.82 ± 0.03 | 0.612 ± 0.028
A549 LUNG | 1.02 ± 0.051 | 0.985 ± 0.059 | 0.995 ± 0.057 | 0.998 ± 0.032 | 1.05 ± 0.037 | 1.08 ± 0.047 | 0.816 ± 0.02 | 0.38 ± 0.011 | 0.932 ± 0.023 | 0.94 ± 0.032 | 0.956 ± 0.023 | 0.915 ± 0.046 | 1 ± 0.042 | 1.01 ± 0.018 | 0.825 ± 0.019 | 0.593 ± 0.032
ASKA SYNOVIAL | 0.946 ± 0.032 | 1.02 ± 0.1 | 1.1 ± 0.03 | 1.02 ± 0.023 | 0.405 ± 0.0092 | 0.406 ± 0.012 | 0.295 ± 0.019 | 0.37 ± 0.015 | 0.897 ± 0.1 | 0.895 ± 0.046 | 0.94 ± 0.096 | 0.931 ± 0.028 | 0.811 ± 0.027 | 0.689 ± 0.026 | 0.427 ± 0.029 | 0.343 ± 0.015
BT20 BREAST | 1.12 ± 0.23 | 1.05 ± 0.19 | 1.06 ± 0.17 | 1.04 ± 0.21 | 1.09 ± 0.3 | 0.972 ± 0.21 | 0.162 ± 0.02 | 0.0827 ± 0.021 | 0.766 ± 0.062 | 0.742 ± 0.02 | 0.718 ± 0.045 | 0.768 ± 0.06 | 0.849 ± 0.071 | 0.688 ± 0.14 | 0.48 ± 0.087 | 0.353 ± 0.042
BT549 BREAST | 1.15 ± 0.1 | 1.11 ± 0.13 | 1.09 ± 0.089 | 1.04 ± 0.089 | 0.783 ± 0.038 | 0.427 ± 0.011 | 0.0453 ± 0.0057 | 0.0453 ± 0.0032 | 0.82 ± 0.091 | 0.818 ± 0.16 | 0.637 ± 0.1 | 0.599 ± 0.11 | 0.421 ± 0.053 | 0.304 ± 0.053 | 0.121 ± 0.011 | 0.122 ± 0.048
C33A CERVIX | 0.908 ± 0.063 | 0.986 ± 0.15 | 1 ± 0.053 | 0.962 ± 0.11 | 0.895 ± 0.073 | 0.491 ± 0.025 | 0.043 ± 0.02 | 0.0347 ± 0.0064 | 0.925 ± 0.11 | 0.98 ± 0.039 | 0.984 ± 0.13 | 0.827 ± 0.062 | 0.435 ± 0.014 | 0.334 ± 0.02 | 0.163 ± 0.015 | 0.124 ± 0.01
CADOES1 SOFT TISSUE | 0.978 ± 0.014 | 0.929 ± 0.11 | 0.95 ± 0.036 | 0.887 ± 0.049 | 0.92 ± 0.094 | 0.832 ± 0.065 | 0.444 ± 0.034 | 0.218 ± 0.017 | 0.943 ± 0.079 | 0.967 ± 0.089 | 0.789 ± 0.12 | 0.776 ± 0.067 | 0.683 ± 0.051 | 0.503 ± 0.14 | 0.285 ± 0.019 | 0.116 ± 0.017
CAL51 BREAST | 0.966 ± 0.047 | 0.9993 ± 0.0062 | 1.01 ± 0.016 | 0.994 ± 0.044 | 0.853 ± 0.012 | 0.48 ± 0.031 | 0.0318 ± 0.0013 | 0.0317 ± 0.0026 | 0.911 ± 0.036 | 0.893 ± 0.052 | 0.904 ± 0.018 | 0.884 ± 0.014 | 0.729 ± 0.043 | 0.621 ± 0.037 | 0.273 ± 0.016 | 0.17 ± 0.011
CAL72 BONE | 1.06 ± 0.019 | 1.08 ± 0.041 | 1.07 ± 0.047 | 1.05 ± 0.023 | 1.11 ± 0.041 | 0.959 ± 0.018 | 0.123 ± 0.0076 | 0.109 ± 0.0067 | 1.03 ± 0.032 | 1.02 ± 0.028 | 1 ± 0.044 | 1 ± 0.05 | 1.04 ± 0.04 | 1.01 ± 0.037 | 0.694 ± 0.066 | 0.556 ± 0.013
CAL120 BREAST | 0.9598 ± 0.0037 | 0.944 ± 0.011 | 0.985 ± 0.026 | 0.9663 ± 0.0029 | 0.902 ± 0.016 | 0.783 ± 0.027 | 0.2 ± 0.015 | 0.12 ± 0.018 | 0.901 ± 0.028 | 0.926 ± 0.022 | 0.903 ± 0.013 | 0.9 ± 0.023 | 0.819 ± 0.023 | 0.767 ± 0.021 | 0.546 ± 0.027 | 0.399 ± 0.0084
CASKI CERVIX | 0.887 ± 0.032 | 0.916 ± 0.071 | 0.99 ± 0.044 | 0.919 ± 0.049 | 0.479 ± 0.022 | 0.187 ± 0.012 | 0.0533 ± 0.0051 | 0.0453 ± 0.0068 | 0.763 ± 0.063 | 0.767 ± 0.057 | 0.7 ± 0.051 | 0.636 ± 0.088 | 0.691 ± 0.023 | 0.612 ± 0.051 | 0.229 ± 0.018 | 0.141 ± 0.0035
CHLA90 AUTONOMIC GANGLIA | 1.03 ± 0.051 | 1.06 ± 0.073 | 0.981 ± 0.023 | 0.963 ± 0.024 | 0.791 ± 0.011 | 0.681 ± 0.036 | 0.0927 ± 0.0067 | 0.076 ± 0.013 | 0.941 ± 0.057 | 0.925 ± 0.035 | 0.906 ± 0.067 | 0.868 ± 0.025 | 0.864 ± 0.039 | 0.865 ± 0.021 | 0.827 ± 0.018 | 0.796 ± 0.032
CME SYNOVIAL | 1.36 ± 0.27 | 1.31 ± 0.096 | 1.5 ± 0.11 | 1.24 ± 0.13 | 1.45 ± 0.094 | 1.4 ± 0.11 | 1.3 ± 0.18 | 0.385 ± 0.025 | 0.718 ± 0.14 | 0.749 ± 0.16 | 0.742 ± 0.12 | 0.513 ± 0.081 | 0.265 ± 0.021 | 0.293 ± 0.036 | 0.211 ± 0.0078 | 0.203 ± 0.0091
COLO320DM LARGE INTESTINE | 1.09 ± 0.063 | 1.1 ± 0.12 | 1.08 ± 0.12 | 1.12 ± 0.033 | 0.834 ± 0.054 | 0.592 ± 0.16 | 0.139 ± 0.011 | 0.131 ± 0.014 | 1.09 ± 0.042 | 0.972 ± 0.025 | 1.03 ± 0.058 | 1.04 ± 0.099 | 1.15 ± 0.22 | 0.89 ± 0.052 | 0.868 ± 0.057 | 0.675 ± 0.024
